Assay results from patent US20260131016A1, “NOVEL AURISTATIN ANALOGS AND IMMUNOCONJUGATES THEREOF” (ADCENTRX THERAPEUTICS INC., priority 2021, published 2026).

Each compound was assayed on HCC1954 breast ductal carcinoma (assay: Cell viability (Cell Titer Glo 2.0) in HCC1954, 120 hours). Details: HCC1954 5-Day Assay; N-methylation of the amide between P4 and P5.
Type: cell-based
Description: HCC1954 breast ductal carcinoma and T47D cells (ATCC, Manassas, VA, USA) were seeded into 384-well white-walled culture plates and allowed to adhere for 2-4 hours. Cells were then treated at least in duplicate by addition of 5-fold serially diluted test articles prepared at 2× final concentration and incubated at 37° C. for 120 hours. Cell viability following treatment was determined by Cell Titer Glo 2.0 Assay (Promega, Madison, WI, USA) and normalized to non-treated controls. Dose-response relationships were analyzed using GraphPad Prism (La Jolla, CA, USA), and IC50 values were derived from non-linear regression analyses using a 4-parameter logistic equation.
With `CC[C@H](C)[C@@H]([C@@H](CC(=O)N1CCC[C@H]1[C@H](OC)[C@@H](C)C(=O)N[C@H](C)[C@@H](O)c1ccccc1)OC)N(C)C(=O)[C@@H](NC(=O)[C@H](C(C)C)N(C)C)C(C)C` [Auristatin E, reference compound] the “IC50[N—Me amide]/IC50[NH-amide]” value was 23.

Same assay, conditions: Homo sapiens, HCC1954, 120 h, read-out: IC50 (nM), in vitro potency in HCC1954
For `CC[C@H](C)[C@@H]([C@@H](CC(=O)N1CCC[C@H]1[C@H](OC)[C@@H](C)C(=O)N(C)CCc1ccccc1N)OC)N(C)C(=O)[C@@H](NC(=O)[C@@H](C(C)C)N(C)C)C(C)C` [Compound 15, (S)-N-((3R,4S,5S)-1-((S)-2-((1R,2R)-3-((2-aminophenethyl)(methyl)amino)-1-methoxy-2-methyl-3-oxopropyl)pyrrolidin-1-yl)-3-methoxy-5-methyl-1-oxoheptan-4-yl)-2-((R)-2-(dimethylamino)-3-methylbutanamido)-N,3-dimethylbutanamide], the IC50 was < 5 nM.
`CC[C@H](C)[C@@H]([C@@H](CC(=O)N1CCC[C@H]1[C@H](OC)[C@@H](C)C(=O)N(C)CCc1cccc(N)c1)OC)N(C)C(=O)[C@@H](NC(=O)[C@H]1CCCCN1C)C(C)C` [Compound 11, (R)-N-((S)-1-(((3R,4S,5S)-1-((S)-2-((1R,2R)-3-((3-aminophenethyl)(methyl)amino)-1-methoxy-2-methyl-3-oxopropyl)pyrrolidin-1-yl)-3-methoxy-5-methyl-1-oxoheptan-4-yl)(methyl)amino)-3-methyl-1-oxobutan-2-yl)-1-methylpiperidine-2-carboxamide] was tested, and the IC50 was < 5 nM.
For `CC[C@H](C)[C@@H]([C@@H](CC(=O)N1CCC[C@H]1[C@H](OC)[C@@H](C)C(=O)N(C)CCc1cccc(N)c1)OC)N(C)C(=O)[C@@H](NC(=O)C1(N(C)C)CCC1)C(C)C` [Compound 12, N-((S)-1-(((3R,4S,5S)-1-((S)-2-((IR,2R)-3-((3-aminophenethyl)(methyl)amino)-1-methoxy-2-methyl-3-oxopropyl)pyrrolidin-1-yl)-3-methoxy-5-methyl-1-oxoheptan-4-yl)(methyl)amino)-3-methyl-1-oxobutan-2-yl)-1-(dimethylamino)cyclobutanecarboxamide], the IC50 was < 5 nM.
In the case of `CC[C@H](C)[C@@H]([C@@H](CC(=O)N1CCC[C@H]1[C@H](OC)[C@@H](C)C(=O)N(C)CCc1ccc(N)cc1)OC)N(C)C(=O)[C@@H](NC(=O)CN(C)C)C(C)C` [Compound 27, (S)-N-((3R,4S,5S)-1-((S)-2-((IR,2R)-3-((4-aminophenethyl)(methyl)amino)-1-methoxy-2-methyl-3-oxopropyl)pyrrolidin-1-yl)-3-methoxy-5-methyl-1-oxoheptan-4-yl)-2-(2-(dimethylamino)acetamido)-N,3-dimethylbutanamide], the IC50 is reported as < 5 nM.

Same assay, conditions: Trastuzumab conjugate of the numbered linker-payload, HCC1954; read-out: ADC (Trastuzumab) IC50 in HCC1954 assay
For `CC[C@H](C)[C@@H]([C@@H](CC(=O)N1CCC[C@H]1[C@H](OC)[C@@H](C)C(=O)N(C)CCc1cccc(NC(=O)[C@H](C)NC(=O)[C@H](C)NC(=O)CN2C(=O)C=CC2=O)c1)OC)N(C)C(=O)[C@@H](NC(=O)[C@H](C)N(C)C)C(C)C` [Compound 29, (S)-2-((S)-2-(dimethylamino)propanamido)-N-((3R,4S,5S)-1-((S)-2-((1R,2R)-3-((3-((S)-2-((S)-2-(2-(2,5-dioxo-2,5-dihydro-1H-pyrrol-1-yl)acetamido)propanamido)propanamido)phenethyl)(methyl)amino)-1-methoxy-2-methyl-3-oxopropyl)pyrrolidin-1-yl)-3-methoxy-5-methyl-1-oxoheptan-4-yl)-N,3-dimethylbutanamide 2,2,2-trifluoroacetate], the IC50 was < 5 nM.
`CC[C@H](C)[C@@H]([C@@H](CC(=O)N1CCC[C@H]1[C@H](OC)[C@@H](C)C(=O)N(C)CCc1cccc(NC(=O)[C@H](C)NC(=O)[C@H](C)NC(=O)CN2C(=O)C=CC2=O)c1)OC)N(C)C(=O)[C@@H](NC(=O)C(C)(C)CN(C)C)C(C)C` [Compound 38, (S)-2-(3-(dimethylamino)-2,2-dimethylpropanamido)-N-((3R,4S,5S)-1-((S)-2-((1R,2R)-3-((3-((S)-2-((S)-2-(2-(2,5-dioxo-2,5-dihydro-1H-pyrrol-1-yl)acetamido)propanamido)propanamido)phenethyl)(methyl)amino)-1-methoxy-2-methyl-3-oxopropyl)pyrrolidin-1-yl)-3-methoxy-5-methyl-1-oxoheptan-4-yl)-N,3-dimethylbutanamide 2,2,2-trifluoroacetate] was tested, and the IC50 was > 10 nM.
For `CC[C@H](C)[C@@H]([C@@H](CC(=O)N1CCC[C@H]1[C@H](OC)[C@@H](C)C(=O)N(C)CCc1cccc(NC(=O)[C@H](C)NC(=O)[C@H](C)NC(=O)CN2C(=O)C=CC2=O)c1)OC)N(C)C(=O)[C@@H](NC(=O)[C@H](C(C)C)N(C)C)C(C)C` [Compound 28, (S)-2-((S)-2-(dimethylamino)-3-methylbutanamido)-N-((3R,4S,5S)-1-((S)-2-((1R,2R)-3-((3-((S)-2-((S)-2-(2-(2,5-dioxo-2,5-dihydro-1H-pyrrol-1-yl)acetamido)propanamido)propanamido)phenethyl)(methyl)amino)-1-methoxy-2-methyl-3-oxopropyl)pyrrolidin-1-yl)-3-methoxy-5-methyl-1-oxoheptan-4-yl)-N,3-dimethylbutanamide 2,2,2-trifluoroacetate], the IC50 was < 5 nM.
In the case of `CC[C@H](C)[C@@H]([C@@H](CC(=O)N1CCC[C@H]1[C@H](OC)[C@@H](C)C(=O)N(C)CCc1cccc(NC(=O)[C@H](C)NC(=O)[C@H](C)NC(=O)CN2C(=O)C=CC2=O)c1)OC)N(C)C(=O)[C@@H](NC(=O)C(C)(C)N(C)C)C(C)C` [Compound 32, (S)-2-(2-(dimethylamino)-2-methylpropanamido)-N-((3R,4S,5S)-1-((S)-2-((1R,2R)-3-((3-((S)-2-((S)-2-(2-(2,5-dioxo-2,5-dihydro-1H-pyrrol-1-yl)acetamido)propanamido)propanamido)phenethyl)(methyl)amino)-1-methoxy-2-methyl-3-oxopropyl)pyrrolidin-1-yl)-3-methoxy-5-methyl-1-oxoheptan-4-yl)-N,3-dimethylbutanamide 2,2,2-trifluoroacetate], the IC50 is reported as < 5 nM.
For `CC[C@H](C)[C@@H]([C@@H](CC(=O)N1CCC[C@H]1[C@H](OC)[C@@H](C)C(=O)N(C)CCc1cccc(NC(=O)[C@H](C)NC(=O)[C@H](C)NC(=O)CN2C(=O)C=CC2=O)c1)OC)N(C)C(=O)[C@@H](NC(=O)CN(C)C)C(C)C` [Compound 31, (S)-2-(2-(dimethylamino)acetamido)-N-((3R,4S,5S)-1-((S)-2-((IR,2R)-3-((3-((S)-2-((S)-2-(2-(2,5-dioxo-2,5-dihydro-1H-pyrrol-1-yl)acetamido)propanamido)propanamido)phenethyl)(methyl)amino)-1-methoxy-2-methyl-3-oxopropyl)pyrrolidin-1-yl)-3-methoxy-5-methyl-1-oxoheptan-4-yl)-N,3-dimethylbutanamide 2,2,2-trifluoroacetate], the IC50 was < 5 nM.
